From patent EP2692724B1, “CHIRAL 3-HYDROXYPYRID-4-ONE DERIVATIVE, AND SYNTHESIS AND USE THEREOF” (Zhejiang University, priority 2011, dated 2012)
Structures can show the parent of a compound that is named as a salt.

What was measured:
mice = assay: Acute toxicity test in mice (maximum oral dosage); assay type: in vivo; settings: suspension of maximum solubility in 0.5% CMC-Na, dose with no fatality
Method: Prepare suspension of maximum solubility of each compound with 0.5% CMC-Na. Maximum oral dosage to mice is 0.4 mL/10g. Blank group took the same volume 0.5% CMC-Na solution orally (blank group and test group has 4 mice each, 2 female and 2 male). […] Monitor reaction of animal right after drug administration, including appearance, activities, mental states, appetites, urea/feces and its color, fur, nose, eye, mouth, if there are any abnormal secretions and death situation, give timely autopsy to dead animals. If any obvious pathology of organs is found, perform histopathological inspection. Every inspection should be performed every 30∼60 min in the 1st day, then check once a day, record animal toxicity and death distribution. Table 2. Maximum dosage of a few 3-hydroxypyridin-4-one derivatives to mice.

[1] = reduced by glycosylation of the hydroxyl group at 3' position; cited from earlier work
^59Fe-Ferritin = assay: Biological effect of iron chelators over 59Fe-Ferritin/Rat (iron excretion ability, oral); assay type: in vivo; settings: for Iron Excretion (%): rat model, taken orally (intragastric) 1 h after tail vein injection of 59Fe-Ferritin, test ends after 24 h, n=5; for iron excretion ability compared with CP20: in vivo rat test, administered in equimolar amounts
Method: According to methods described by Pippard's research group [Blood 58: 685-692], use ^59Fe to label ferritin in rat liver. Isolate ^59Fe-labelled ferritin by the method described by Bjorklid and Helgeland. In the preparation process, the rats were injected intraperitoneally with iron dextran, and intravenous administration of red blood cells, in order to keep the plasma transferrin saturated. This method ensures that most of ^59Fe (III) is absorbed by the liver, so ^59Fe-ferritin with high specific radioactivity can be obtained.
Performance of one shot intraperitoneal injection of 15mg iron dextran to 350∼400 g rats. After one week, jugular vein cannula is performed and then a 24 h's rest. Then the second day, each rat is given packed red cells (2 mL/100g). After 24 h, each rat is injected via the jugular vein cannula with 200 µCi ^59FeCl solution (Amersham Life Science). ^59FeCl3 (1mCi) is diluted 0.5 mL citrate (50mM, pH 2.5). Each experiment employs 5 rats, total radiation is 1mCi. 24 h after isotopically labeled injection, the livers were removed from rats.
Homogenization of liver is processed in 4 vol. (w/v) 0.25M acetate buffer. The homogenate was heated to 75°C with stirring for 10min. After cooling to 4°C, remove solid protein by centrifugation at 2500 g for 15 min. Treat the supernatant that contains tissue iron protein with half saturated (NH4)2SO4, while cooling in ice water for 30 min. The precipitate obtained by centrifugation at 3500 g at 4°C for 15 min, is dissolved in 0.25M pH=4.8 acetate buffer. Undissolved precipitate is removed through a Pd-10 column (Sephadex®, G-25M, Pharmacia Biotech). The resulting solution is centrifuged at 100,000 g at 4°C for 2 h. The final precipitate is dissolved in 0.05M pH=7.4 phosphate buffer, and stored at 4°C. The purity of ^59Fe-ferritin and normal Ferritin (Sigma Chemical Co.) are compared by electrophoresis. Iron concentration of ferritin is tested by colorimetry [Biochem Mol. Biol Int 35(3): […]].
Starved rat was injected ^59Fe-Ferritin via tail vein, in order to label rat liver cells with ^59Fe. After 1 h, each rat is given an iron chelator via intragastric injection. Blank group is administered with water by lavage. Each rat is placed in a metabolic cage, collect urine and feces. All rats are given free access to food after oral administration 1h later, and are free to drink water during the whole experiment. Test ends after 24 h of the tail vein injection of ^59Fe-Ferritin. All rats are killed by the cervical dislocation, then the liver and gastrointestinal system (including its content and feces) are collected for ^59Fe quantification. Calculation for iron excretion ability of iron chelators with following formula: (1) Iron Excretion(%)=^59Fe Activity(intestinal track & feces)/(^59Fe Activity(intestinal tracks & feces)+ ^59Fe Activity(liver))×100% Table 1 Iron excretion ability of taking chiral 3-hydroxypyridine-4-one orally on rat model (n=5).

Row | Molecule | Iron Excretion (%) (^59Fe-Ferritin) | other results
1 | Cc1c(O)c(=O)ccn1C [CP20, reference compound] | 11.4% | Maximum dosage: Dosage(g/kg) (mice): 1.50 g/kg; Maximum dosage: Mole dosage(mmol/kg) (mice): 10.7 mmol/kg; half-life [1]: 2∼3 h
2 | CCc1c(O)c(=O)ccn1[C@H](C)CO [CN408, (R)-3-Hydroxy-1-(1-hydroxy-3-propyl-2-)-2-ethyl pyridine-4(1H)-one hydrochloride] | 10.6% | 
3 | Cc1c(O)c(=O)ccn1[C@@H](CO)Cc1ccccc1 [CN128, (R)-3-Hydroxy-1-(1-hydroxy-3-benzylpropyl-2-)2-methyl pyridine-4(1H)-one] | 24.8% | iron excretion ability compared with CP20 (^59Fe-Ferritin): several times better than CP20
4 | Cc1c(O)c(=O)ccn1[C@@H](CO)C(C)C [CN318, (R)-3-Hydroxy-1-(1-hydroxy-3-methylbutyl-2-)-2-methyl pyridine-4(1H)-one hydrochloride] | 8.0% | 
5 | CCc1c(O)c(=O)ccn1[C@@H](C)CO [CN206, (S)-3-Hydroxy-1-(1-hydroxypropyl-2-)-2-ethylpyridine-4(1H)-one] | 16% | Maximum dosage: Dosage(g/kg) (mice): 3.75 g/kg; Maximum dosage: Mole dosage(mmol/kg) (mice): 19.0 mmol/kg; iron excretion ability compared with CP20 (^59Fe-Ferritin): several times better than CP20
6 | (S)-3-hydroxy-1-(1-hydroxy propyl-2-)-2-methyl pyridine-4(1H)-one hydrochloride [CN306] | 11.9% | 
7 | CCc1c(O)c(=O)ccn1[C@H](CO)C(C)C [CN416, (S)-3-Hydroxy-1-(1-hydroxy-3-methylbutyl-2-)-2-ethyl pyridine-4(1H)-one hydrochloride] | 7.9% | 
8 | CCc1c(O)c(=O)ccn1[C@H](CO)Cc1ccccc1 [CN426, (S)-3-Hydroxy-1-(1-hydroxy-3-phenylpropyl-2-)-2-ethyl pyridine-4(1H)-one hydrochloride] | 13.1% | 
9 | Cc1c(O)c(=O)ccn1[C@H](CO)Cc1ccccc1 [CN326, (S)-3-Hydroxy-1-(1-hydroxy-3-phenylpropyl-2-)-2-methyl pyridine-4(1H)-one hydrochloride] | 12.8% | 
10 | (R)-3-Hydroxy-1-(1-hydroxy-3-propyl-2-)-2-methyl pyridine-4(1H)-one hydrochloride [CN308] | 6.5% | 
11 | Cc1c(O)c(=O)ccn1[C@H](CO)C(C)C [CN116, (S)-3-Hydroxy-1-(1-hydroxy-3-methylbutyl-2-)-2-methyl pyridine-4(1H)-one] | 18.7% | iron excretion ability compared with CP20 (^59Fe-Ferritin): several times better than CP20
12 | 3-Hydroxy-1-((2S)-1-hydroxy-3-methyl pentyl-2-)-2-methyl pyridine-4(1H)-one hydrochloride [CN336] | 10.8% | 
13 | CCc1c(O)c(=O)ccn1[C@@H](CO)C(C)C [CN418, (R)-3-Hydroxy-1-(1-hydroxy-3-methylbutyl-2-)-2-ethyl pyridine-4(1H)-one hydrochloride] | 10.6% | 
14 | 3-Hydroxy-1-((2S)-1-hydroxy-3-methyl pentyl-2-)-2-ethyl pyridine-4(1H)-one hydrochloride [CN436] | 5.8% | 
15 | CCc1c(O)c(=O)ccn1[C@@H](CO)Cc1ccccc1 [CN228, (R)-3-Hydroxy-1-(1-hydroxy-3-phenylpropyl-2-)-2-ethyl pyridine-4(1H)-one] | 22.3% | iron excretion ability compared with CP20 (^59Fe-Ferritin): several times better than CP20
